Results on 97 compounds are retold here after ChEMBL document CHEMBL3507680, “University of Dundee, Gates Library screen for HepG2 cell viability”.

SMILES strings stand for the structures.

A short description of the data set: Human HepG2 cell viability assay in 384 well format. The format is toxicity, cell-based. Further details: dose 125 nL, time 70.5 hour; concentration not given beside the values. The conditions noted are these: HepG2 cells, read-out: Inhibition.

Turning to `Cc1n[nH]c(C)c1CC(=O)NCc1ccccc1Cl`, the cytotoxicity at 70.5 h came out at 1.58%. Under `COCCCNS(=O)(=O)c1ccc(N2CCCCS2(=O)=O)cc1` stands -9.62%; under `COc1ccc(C2=NOC(C(=O)N3CCCc4ccccc43)C2)cc1` (configuration not stated), 8.49%. As to `Cc1ccc(NC(=O)Nc2c[nH]c(=O)[nH]c2=O)c(Cl)c1`, the cytotoxicity at 70.5 h was -8.13%. The same measure for `CCOCCCNC(=O)C(NC(=O)Cc1cccs1)c1ccc(C)cc1` (configuration not stated): -2.89%.

As for `CCOC(=O)CCn1cnc2onc(-c3cc(OC)ccc3Cl)c2c1=O`, the cytotoxicity at 70.5 h was -11%. Under `Cn1nnc(NCc2ccc(OCc3ccc(Cl)cc3)cc2)n1` stands -4.01%; under `CCOc1cc(CNc2nnn(C)n2)ccc1OCc1ccc(Cl)cc1`, -10.2%; under `CCCn1nnc(NCc2ccccc2OCc2ccc(Cl)cc2)n1`, -7.74%. Under `CCOC(=O)CCn1cnc2onc(-c3ccc(OC)cc3)c2c1=O` stands 35.2%; under `CN1CC=C(c2noc(CCC(=O)N3CCc4ccccc43)n2)CC1`, -26.2%. Under `CCOC(=O)CNC(=O)NCc1cc(C)n(-c2ccc(OC)cc2)c1C` stands -22.5%. Regarding `COc1ccc(Cl)cc1Nc1nc(N)c(C(C)=O)s1`, the cytotoxicity at 70.5 h was -19.7%. Under `COc1ccc(Nc2nc(N)c(C(C)=O)s2)cc1OC` stands -12.7%; under `CCCC(=O)n1ccn(S(=O)(=O)c2ccc(C)cc2)c1=O`, -14.8%; under `Cc1ccc(S(=O)(=O)n2ccn(C(=O)COc3ccccc3)c2=O)cc1`, -9.68%.

As to `CCOC(=O)CNC(=O)NCc1cccn1Cc1ccccc1F`, the cytotoxicity at 70.5 h was -2.5%.

As for `CCN1CCN(C(=O)CCn2cccc2)CC1`, the cytotoxicity at 70.5 h was -12.8%.

As for `COCCCNC(=O)Nc1ncc(-c2cccc(OC)c2)n1CCOC`, the cytotoxicity at 70.5 h was -17.4%. Under `COCCn1c(-c2cccc(OC)c2)cnc1NC(=O)NCC(C)C` stands -18.3%.

As to `Cc1ccc2snc(C(=O)N3CCN(C(=O)NCCC(C)C)CC3)c2c1`, the cytotoxicity at 70.5 h was -6.08%. The same measure for `COCCNC(=O)N1CCN(C(=O)c2nsc3ccc(C)cc23)CC1`: -17.5%; for `CN1CCN(S(=O)(=O)c2cccc(F)c2)c2ccccc21`: 11.9%.

In the case of `COC(=O)c1cccc(C(=O)NCc2ccc(C)o2)n1`, the cytotoxicity at 70.5 h was -18.5%. Under `CCN(CC)c1nc2ccsc2c(=O)n1CCC(=O)NCc1ccco1` stands 12.3%. Under `COc1ccccc1NC(=O)N1CCCC1c1ccco1` (configuration not stated) stands -0.874%. The same measure for `Cc1cc(=O)n2nc(CNc3cc(Cl)ccc3C)nc2[nH]1`: -9.92%; for `CCC(=O)NC(c1cccnc1)c1cc(C)ccc1C` (configuration not stated): -12.3%; for `Cc1ccccc1NC(=O)Nc1c[nH]c(=O)[nH]c1=O`: -9.84%. On to `CC1CCN(c2ccc(NC(=O)CCn3cccn3)cc2)CC1`, for which the cytotoxicity at 70.5 h is -9.93%.

Turning to `COc1ccc(NC(=O)c2cnc(N3CCN(C)CC3)nc2C)cc1`, the cytotoxicity at 70.5 h is -6.31%.

With `CCC1CN(CC(=O)NCCN2CCCCCC2)c2ccccc2S1` (configuration not stated), the cytotoxicity at 70.5 h is -1.59%.

Turning to `CCC1CN(CC(=O)NCCN2CCCC2)c2ccccc2S1` (configuration not stated), the cytotoxicity at 70.5 h was -2.98%.

Take `COc1cccc(CN2CCCCCC2c2cccc(F)c2)c1O` (configuration not stated): the cytotoxicity at 70.5 h was -1.29%. The same measure for `Cc1nn(C)c2c(=O)n(CC(=O)NCCN3CCCCCC3)ccc12`: -4.19%; for `O=C(Cn1ccc2sccc2c1=O)NC1CCCCC1`: -9.58%; for `CCCNC(=O)CCC(=O)n1nc(C)c2ccccc21`: 1.02%.

In the case of `CCCNC(=O)C1CCCN(c2ccc3nncn3n2)C1` (configuration not stated), the cytotoxicity at 70.5 h was -4.72%.

For `CCN(CC)CCNC(=O)c1ccc(-n2ccc3ccccc32)s1`, the cytotoxicity at 70.5 h worked out at 1.6%. Consider `O=C(NCCCN1CCCC1=O)c1ccc(-n2ccc3ccccc32)s1`, for which the cytotoxicity at 70.5 h turned out to be 1.6%. Under `CCOc1nc2cnccc2n(CC(=O)NCCc2ccccc2)c1=O` stands 28.7%; under `COc1ccc(NC(=O)c2nc3ccccc3n(C)c2=O)cc1OC`, 29.1%. `COc1cc(NC(=O)c2nc3ccccc3n(C)c2=O)cc(OC)c1`: the cytotoxicity at 70.5 h was -14.2%. Under `COc1ccc(C2CCCCCN2Cc2cn(C)nc2C)cc1` (configuration not stated) stands -3.41%; under `Cc1nn(C)cc1CN1CCCCCC1c1ccccc1Cl` (configuration not stated), 17.7%. For the compound `O=C(C1CCN(S(=O)(=O)N2CCCC2)CC1)N1CCC2(CC1)OCCO2`, the cytotoxicity at 70.5 h is -7.18%. The same measure for `CCOC(=O)C(C)NC(=O)N1CCN(c2nc3ccccc3n2C)CC1` (configuration not stated): -2.33%. The same measure for `CCS(=O)(=O)N1CCc2ccc(NC(=O)NC(C)(C)C)cc21`: -13.6%; for `CCS(=O)(=O)N1CCc2ccc(NC(=O)Nc3cccc(F)c3)cc21`: 33%; for `CCn1nc(C)c2ccn(CC(=O)NC(C)C)c(=O)c21`: -2.74%.

For the compound `COCCN1CC2(CCN(Cc3ccco3)CC2)c2ccccc21`, the cytotoxicity at 70.5 h came to 4.26%.

For `COCC(=O)NCC1Cn2nnc(-c3ccoc3)c2CO1` (configuration not stated), the cytotoxicity at 70.5 h is -6.95%. Under `COc1ccc(C(=O)N2CCO[C@H]3[C@@H](OCC4CC4)CC[C@@H]32)cc1F` stands -2.05%; under `CS(=O)(=O)N1C[C@@H](C(=O)Nc2cnccn2)C[C@H]2OCC[C@H]21`, -7.68%. Under `CCN(CC)C(=O)c1nc2c(s1)CCN(C(=O)CCC(=O)OC)CC2` stands 3.92%; under `COC(=O)CCC(=O)N1CCc2nc(C(=O)N3CCCCC3)sc2CC1`, -1.33%.

With `CCCS(=O)(=O)N1CCc2nc(N3CCOCC3)nc(N(C)C)c2C1`, the cytotoxicity at 70.5 h came out at 26.5%. For the compound `O=C(CC1CC1)N1CCCn2c(nnc2Cn2cccc2)C1`, the cytotoxicity at 70.5 h was -4.38%. Under `COc1cc(N2C[C@H]3CN(CCN4CCCC4)C(=O)[C@H]3C2)ncn1` stands -7.36%. The same measure for `O=C(Nc1cnccn1)[C@H]1C[C@H]2OCC[C@H]2N(c2ncc(F)cn2)C1`: -11.1%; for `CCn1cc2c(n1)C(COCC1CC1)CN(C(=O)c1cc(C)on1)C2` (configuration not stated): -10.4%; for `O=C([C@H]1COC[C@H]2CN(CC3CCC3)C[C@H]21)N1CCOCC1`: -6.01%. Under `O=C([C@@H]1COC[C@H]2CN(CC3CCCC3)C[C@H]21)N1CCOCC1` stands -7.37%; under `COc1ccc(C(=O)N2CCO[C@H]3[C@H](OCC4CC4)CC[C@@H]32)cc1F`, -12.7%; under `O=C(Cc1cccs1)NCC1Cn2nnc(-c3ccoc3)c2CO1` (configuration not stated), -5.7%. Consider `CCS(=O)(=O)N1CCc2nc(N3CCOCC3)nc(N(C)C)c2CC1`, for which the cytotoxicity at 70.5 h is -7.6%.

As for `CCOCC1CC2(CCN(C(=O)CC3=CCCCC3)CC2)CO1` (configuration not stated), the cytotoxicity at 70.5 h is 1.88%. The same measure for `CC(=O)NCC(=O)N1Cc2cc(C#N)ccc2C1c1cnco1` (configuration not stated): 25.2%. Under `COc1ncnc2c1CCN(C(=O)Cc1cccc(F)c1)CC2` stands -3.34%; under `COC(=O)c1cccc(S(=O)(=O)NC(=O)COC2CCCC2)c1`, -11.9%. The same measure for `Cc1cc2n(n1)CC(CNCc1ccc(OCC3CC3)nc1)CN2` (configuration not stated): 7.09%; for `CCN(C(C)=O)c1nc(CN2CCCC2Cn2cncn2)cs1` (configuration not stated): 17.8%. In the case of `Cc1cnn(C2CN(Cc3nc(-c4ccccn4)no3)C2)c1`, the cytotoxicity at 70.5 h worked out at 12.3%. Under `CN(Cc1noc(C(C)(C)C)n1)C1CCCN(c2cccnn2)C1` (configuration not stated) stands 44.8%; under `CN(Cc1noc(C2CC2)n1)C1CCCN(c2cccnn2)C1` (configuration not stated), 0.945%. In the case of `CCC1CCCCN1Cc1ncc(C(C)(C)C)o1` (configuration not stated), the cytotoxicity at 70.5 h was -7.2%. Under `O=C(c1ccc2nncn2c1)N1CCCC(n2ccnc2)C1` (configuration not stated) stands -14.2%. The same measure for `CCn1cnnc1CNC(=O)N1CCN(c2cccc(C)c2)CC1`: -7.02%.

For `Cc1cc(C)n(CC2CN(CC(=O)NC3CCCCC3)CCO2)n1` (configuration not stated), the cytotoxicity at 70.5 h was -9.27%. Under `Cc1cc(C)n(CC2CN(CCC(=O)NC3CCCCC3)CCO2)n1` (configuration not stated) stands -9.5%; under `Cc1cccc(-c2noc(CN3CC(n4cccn4)C3)n2)c1`, -8.11%.

Turning to `CCCN(CC(=O)N1CCNCC1)C(=O)c1cccc(Cl)c1`, the cytotoxicity at 70.5 h was -15.8%. Under `CC(C)OCCCN(CC(=O)N1CCNCC1)C(=O)c1ccc(F)cc1` stands 19.8%; under `CC[C@H]1N(CC2CCOCC2)CCC[C@]12CCC(=O)N2`, -3.56%.

Consider `Cc1noc(C)c1CN1CCC2(CC1)CC(Oc1cccnc1)CO2` (configuration not stated), for which the cytotoxicity at 70.5 h was 1.43%. `Cc1nnc(N2C[C@@H]3CCCO[C@@H]3[C@H](N3CCCC3=O)C2)s1`: the cytotoxicity at 70.5 h is -9.55%. The same measure for `O=C(C1CCCO1)N1CCCn2c(nnc2Cn2ccnc2)C1` (configuration not stated): -7.67%.

Turning to `Cc1ccc(CN2CCC3(CCC3NS(=O)(=O)c3ccccc3)CC2)o1` (configuration not stated), the cytotoxicity at 70.5 h came out at 8.23%. The same measure for `N#Cc1ccc(N2CCC3(CC2)COCCN3Cc2cccnc2)cc1`: -4.74%.

As to `O=C(NC1CCCC1)N1CC[C@H]2[C@H]1CCN2c1nncs1`, the cytotoxicity at 70.5 h is 36.5%.

Take `COc1ccccc1OCC(=O)N1C[C@@H]2CN(C)CCO[C@@H]2C1`: the cytotoxicity at 70.5 h worked out at 32.3%. The same measure for `COCCN1CCO[C@@H]2CN(C(=O)COc3ccc(C)cc3)C[C@@H]2C1`: -8.74%; for `COc1ncccc1CN1CCC2(CCCN2S(C)(=O)=O)CC1`: -7.14%; for `COc1ncccc1CN1CCC2(CC1)COCCN2C`: -8.7%. The same measure for `Cc1noc(C)c1CN1CCC2(CC1)CC(Oc1cccnc1)C2`: -9.29%. Under `Cc1cnc(N2CCN3C[C@H](OCc4cccc(C)n4)C[C@H]3C2)nc1` stands 0.481%. For the compound `N#Cc1ccc(N2CC3(CCN(c4nccs4)C3)C2)nc1`, the cytotoxicity at 70.5 h worked out at 5.37%.
